Reference: the supplement of paper PMC10307832

Legend:
Assay in all cases: relative viability (nuclei count vs DMSO), 5 days (fraction); higher = more cells survive
Dasatinib + Foretinib = compound: Cc1nc(Nc2ncc(C(=O)Nc3c(C)cccc3Cl)s2)cc(N2CCN(CCO)CC2)n1 [Dasatinib] + COc1cc2c(Oc3ccc(NC(=O)C4(C(=O)Nc5ccc(F)cc5)CC4)cc3F)ccnc2cc1OCCCN1CCOCC1 [Foretinib] (partner 0.25 µM)
Outline: (§1)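 For relative viability, nuclei counts in treated wells were divided by those in vehicle wells. Lung cancer cell lines had been pin-tool dosed in 1536-well plates the day after seeding and cultured for 5 days, then fixed and stained in one step (final 0.05% Triton X-100, 1% formaldehyde, 1 ug/ml Hoechst) and imaged at 4×. Doses were one drug alone or a fixed anchor-drug dose plus five library-drug doses (not always all listed) in √10 steps, and values are duplicate-plate medians.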

ALW-II-49-7 + Crizotinib = compound: Cc1ccc(C(=O)Nc2cccc(C(F)(F)F)c2)cc1Nc1cncc(C(N)=O)c1 [ALW-II-49-7] + C[C@@H](Oc1cc(-c2cnn(C3CCNCC3)c2)cnc1N)c1c(Cl)ccc(F)c1Cl [Crizotinib] (partner 1 µM)
Outline: as §1

[1] = compound: Cc1ccc(C(=O)Nc2cccc(C(F)(F)F)c2)cc1Nc1cncc(C(N)=O)c1 [ALW-II-49-7] + CC(=O)c1c(C)c2cnc(Nc3ccc(N4CCNCC4)cn3)nc2n(C2CCCC2)c1=O [Palbociclib] (partner 0.5 µM)
Outline: as §1

XMD13-2 + Phenformin = compound: C1CC1C(=O)NC2=NNC3=C2C=CC(=C3)C4=CC(=CC=C4)C(=O)NC5CC5 [XMD13-2] + N=C(N)NC(=N)NCCc1ccccc1 [Phenformin] (partner 250 µM)
Outline: as §1

Cell Line	relative viability (Dasatinib + Foretinib; first compound 0.005 µM)	relative viability (Dasatinib + Foretinib; first compound 0.01581 µM)	relative viability (Dasatinib + Foretinib; first compound 0.05 µM)	relative viability (Dasatinib + Foretinib; first compound 0.1581 µM)	relative viability (Dasatinib + Foretinib; first compound 0.5 µM)	relative viability (ALW-II-49-7 + Crizotinib; first compound 0.08 µM)	relative viability (ALW-II-49-7 + Crizotinib; first compound 0.253 µM)	relative viability (ALW-II-49-7 + Crizotinib; first compound 0.8 µM)	relative viability (ALW-II-49-7 + Crizotinib; first compound 2.53 µM)	relative viability (ALW-II-49-7 + Crizotinib; first compound 8 µM)	relative viability ([1]; first compound 0.08 µM)	relative viability ([1]; first compound 0.253 µM)	relative viability ([1]; first compound 0.8 µM)	relative viability ([1]; first compound 8 µM)	relative viability (XMD13-2 + Phenformin; first compound 0.05 µM)	relative viability (XMD13-2 + Phenformin; first compound 0.1581 µM)	relative viability (XMD13-2 + Phenformin; first compound 0.5 µM)	relative viability (XMD13-2 + Phenformin; first compound 1.581 µM)	relative viability (XMD13-2 + Phenformin; first compound 5 µM)	relative viability ([1]; first compound 2.53 µM)
LK-2	1.08	0.967	0.656	0.588	0.304	0.216	0.211	0.215	0.262	0.226	0.767	0.487	0.63	0.673	0.607	0.496	0.455	0.334	0.392	–
LOU-NH91	0.985	0.899	0.827	0.652	0.397	0.744	0.767	0.728	0.466	0.703	0.484	0.526	0.517	0.564	0.83	0.663	0.732	0.582	0.867	–
LU99A	0.849	–	0.723	0.59	0.383	0.535	0.508	0.521	0.604	0.546	–	0.403	0.39	0.359	1.08	0.752	0.833	0.885	0.852	0.377
LXF-289	1.01	0.983	0.914	0.513	0.125	0.817	0.817	0.911	0.923	0.876	0.529	0.682	0.625	0.674	0.538	0.536	0.561	0.551	0.527	0.709
NCI-H23	0.864	0.649	0.676	0.457	0.484	0.419	0.475	0.493	0.598	0.509	0.495	0.496	0.573	0.543	1	0.796	0.802	0.725	0.916	0.54
NCI-H322M	0.909	0.75	0.485	0.285	0.233	0.928	0.689	0.775	1.04	0.71	0.439	0.453	0.486	0.505	0.858	0.84	0.774	0.782	0.905	0.534
NCI-H358	0.649	0.532	0.433	0.198	0.162	0.616	0.412	0.486	0.435	0.539	0.128	0.13	0.141	0.117	0.358	0.323	0.336	0.351	0.304	0.133
NCI-H441	1.06	0.988	1.02	0.701	0.382	0.772	0.714	0.676	0.598	0.625	0.182	0.177	0.249	0.188	1.06	0.801	0.883	0.884	0.871	0.212
NCI-H460	1.04	0.904	0.808	0.716	0.746	1	0.877	0.802	1.01	0.793	0.171	0.185	0.126	0.111	0.589	0.537	0.57	0.486	0.542	0.136
NCI-H520	0.631	0.427	0.36	0.175	0.175	0.751	0.638	–	0.682	0.723	0.219	0.234	0.205	0.21	0.529	0.604	0.591	0.529	0.499	0.213
NCI-H647	1.11	1.17	0.649	0.276	0.252	1.07	1.4	1.28	0.776	0.67	0.422	0.307	0.444	0.238	0.697	0.605	0.678	0.659	0.435	0.294
NCI-H650	1.02	0.875	1.01	0.759	0.475	0.679	0.699	0.62	0.43	0.516	0.277	0.309	0.351	0.236	0.438	0.544	0.534	0.425	0.488	0.327
NCI-H661	1.02	1.03	0.964	0.735	0.599	–	1	0.922	–	1.04	0.384	0.443	0.39	0.404	0.261	0.292	0.274	0.267	0.271	0.384
NCI-H727	0.616	0.512	0.431	0.278	0.185	0.739	0.874	0.847	0.804	0.885	0.604	0.63	0.676	0.577	0.619	0.518	0.556	0.584	0.525	0.555
NCI-H838	0.679	0.654	0.552	0.313	0.236	0.851	0.871	0.854	0.788	1	0.246	0.225	0.203	0.191	0.663	0.538	0.65	0.544	0.632	0.232
NCI-H1355	1.03	0.719	0.908	0.722	0.644	1	1.03	1.11	0.928	0.935	0.372	0.428	0.376	0.436	0.5	0.451	0.465	0.462	0.517	0.4
